Measured values as given in a compilation of properties of binary mixtures (doi:10.1515/zpch-2013-0494).

Test: xn = mol fraction of the nth substance listed
Details: 101 kPa

CC(CC(C)(C)C)CP(=O)([O-])CC(C)CC(C)(C)C.CCCCCCCCCCCCCC[P+](CCCCCC)(CCCCCC)CCCCCC + CCCCCCCCCCCC
viscosity [mPa·s]
Details | x1 = 0.4684 | x1 = 0.6647 | x1 = 0.8071 | x1 = 1
298.15 K | – | 249 | 449 | 1000
303.15 K | 64.2 | 195 | 344 | –
308.15 K | – | 156 | 291 | –
313.15 K | 48 | 126 | 233 | 439
318.15 K | 40.9 | – | 180 | –
323.15 K | 35.2 | 85 | 144 | 264
328.15 K | 30.5 | 69.9 | 118 | –
333.15 K | 27.1 | 59.3 | 95.4 | 170
338.15 K | 24.2 | – | 81.1 | –
343.15 K | 21.2 | – | 65 | –
353.15 K | – | – | – | 78

CCCCCCCCCCCCCC[P+](CCCC)(CCCC)CCCC.CCCCCCCCCCCCc1ccccc1S(=O)(=O)[O-] + CCCCCCCCCCCC
viscosity [mPa·s]
Details | x1 = 0.354 | x1 = 0.4402 | x1 = 0.4844 | x1 = 0.6789 | x1 = 1
298.15 K | 312 | – | 594 | 2930 | –
303.15 K | 225 | – | 441 | 1580 | –
308.15 K | 167 | 239 | – | 1130 | –
313.15 K | – | – | – | 812 | 1480
318.15 K | 95 | 135 | 176 | – | –
323.15 K | 74.3 | 105 | 135 | 431 | 750
328.15 K | – | 81.7 | 101 | – | –
333.15 K | 47.7 | 65.7 | 81.6 | 228 | 409
338.15 K | – | 53.6 | – | 169 | –
343.15 K | 31.5 | 44.3 | 54.4 | – | 238
348.15 K | 26.5 | 36.8 | 43.3 | 108 | –
353.15 K | 22.6 | 31.1 | 37.1 | – | 148

CCCCCCCCCCCCCC[P+](CCCCCC)(CCCCCC)CCCCCC.N#C[N-]C#N + CCCCCCCCCCCC
viscosity [mPa·s]
Details | 298.15 K | 303.15 K | 308.15 K | 313.15 K | 318.15 K | 333.15 K | 338.15 K | 343.15 K | 348.15 K | 353.15 K
x1 = 0.5534 | 160 | 116 | – | 71.6 | 57.8 | 32.8 | 28 | – | 21.2 | 19
x1 = 0.736 | 238 | 181 | 141 | – | 89.1 | 49.3 | 41.4 | 35.5 | 30.3 | 26.1
x1 = 1 | 440 | – | – | 196 | – | 82 | – | 56 | – | –
